Experimental findings from US20130243928A1 (priority 2007, published 2013) are described below.

The series in a line: Distribution (dissolution) of resveratrol in an aliquot of wine with heating. The series is classed as physicochemical. The settings on record: heating up to about 40° C., no added alcohol or other solvent. From the text:
The size, temperature and heating time for a batch of resveratrol concentrate will vary depending on how much resveratrol is needed to be added. […] Temperature can be measured by placing a thermometer in the batch of wine and timing the process.

Turning to `Oc1ccc(/C=C/c2cc(O)cc(O)c2)cc1` [resveratrol, trans-3,5,4′-trihydroxystilbene], the “amount of resveratrol that can be distributed in an aliquot of wine” value was “about 1.25 (wt/vol)”.
